Measured values from US9957269B2, “S-imino-S-oxo iminothiazine compounds as bace inhibitors, compositions, and their use” (Merck Sharp & Dohme Corp., priority 2014, dated 2018).

Legend:
[1] = target: soluble human BACE1 catalytic domain (Homo sapiens, UniProt P56817); assay: BACE1 HTRF FRET Assay; type: biochemical; details: Ki calculated from IC50 using the Cheng-Prusoff equation; QSY7-APPswe-Eu substrate 200 nM, pH 5.0
Excerpt: Na^+-Acetate pH 5.0; 1% Brij-35; Glycerol; Dimethyl Sulfoxide (DMSO); Recombinant human soluble BACE1 catalytic domain (>95% pure); APP Swedish mutant peptide substrate (QSY7-APP^swe-Eu): QSY7-EISEVNLDAEFC-Europium-amide.
A homogeneous time-resolved FRET assay can be used to determine IC50 values for inhibitors of the soluble human BACE1 catalytic domain. This assay monitors the increase of 620 nm fluorescence that resulted from BACE1 cleavage of an APPswedish APP^swe mutant peptide FRET substrate (QSY7-EISEVNLDAEFC-Europium-amide). This substrate contains an N-terminal QSY7 moiety that serves as a quencher of the C-terminal Europium fluorophore (620 nm Em). In the absence of enzyme activity, 620 nm fluorescence is low in the assay and increased linearly over 3 hours in the presence of uninhibited BACE1 enzyme. Inhibition of BACE1 cleavage of the QSY7-APP^swe-Eu substrate by inhibitors is manifested as a suppression of 620 nm fluorescence.
Varying concentrations of inhibitors at 3× the final desired concentration in a volume of 10 ul are preincubated with purified human BACE1 catalytic domain (3 nM in 10 μl) for 30 minutes at 30° C. in reaction buffer containing 20 mM Na-Acetate pH 5.0, 10% glycerol, 0.1% Brij-35 and 7.5% DSMO. Reactions are initiated by addition of 10 μl of 600 nM QSY7-APP^swe-Eu substrate (200 nM final) to give a final reaction volume of 30 μl in a 384 well Nunc HTRF plate. The reactions are incubated at 30° C. for 1.5 hours. The 620 nm fluorescence is then read on a Rubystar HTRF plate reader (BMG Labtechnologies) using a 50 millisecond delay followed by a 400 millisecond acquisition time window. Inhibitor IC50 values are derived from non-linear regression analysis of concentration response curves. Ki values are then calculated from IC50 values using the Cheng-Prusoff equation using a previously determined […] of 8 μM for the QSY7-APP^swe-Eu substrate at BACE.

[2] = target: T1, purified human autoBACE-2 (Homo sapiens, UniProt Q9Y5Z0); assay: BACE-2 Assay (BACE-HTRF assay); type: biochemical; details: Ki calculated from IC50 using the Cheng-Prusoff equation; QSY7-EISEVNLDAEFC-Eu-amide substrate 200 nM, pH 5.0; read-out: BACE2 Ki
T1 sequence (Q9Y5Z0 63-473 limits assumed): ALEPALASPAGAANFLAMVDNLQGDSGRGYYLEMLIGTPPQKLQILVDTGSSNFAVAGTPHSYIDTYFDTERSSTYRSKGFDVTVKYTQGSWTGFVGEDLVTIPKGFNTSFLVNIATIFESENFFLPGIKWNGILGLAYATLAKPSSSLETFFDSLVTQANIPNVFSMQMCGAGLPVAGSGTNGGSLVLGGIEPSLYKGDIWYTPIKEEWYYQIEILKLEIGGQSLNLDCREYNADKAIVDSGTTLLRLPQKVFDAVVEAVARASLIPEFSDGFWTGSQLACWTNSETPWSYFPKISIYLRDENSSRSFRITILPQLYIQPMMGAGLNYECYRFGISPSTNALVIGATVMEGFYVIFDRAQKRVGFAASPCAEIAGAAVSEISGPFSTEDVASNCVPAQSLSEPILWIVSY
Protocol: Inhibitor IC50s at purified human autoBACE-2 are determined in a time-resolved endpoint proteolysis assay that measures hydrolysis of the QSY7-EISEVNLDAEFC-Eu-amide FRET peptide substrate (BACE-HTRF assay). BACE-mediated hydrolysis of this peptide results in an increase in relative fluorescence (RFU) at 620 nm after excitation with 320 nm light. Inhibitor compounds, prepared at 3× the desired final concentration in 1× BACE assay buffer (20 mM sodium acetate pH 5.0, 10% glycerol, 0.1% Brij-35) supplemented with 7.5% DMSO are pre-incubated with an equal volume of autoBACE-2 enzyme diluted in 1× BACE assay buffer (final enzyme concentration 1 nM) in black 384-well NUNC plates for 30 minutes at 30° C. […] DMSO is present at 5% final concentration in the assay. Following laser excitation of sample wells at 320 nm, the fluorescence signal at 620 nm is collected for 400 ms following a 50 μs delay on a RUBYstar HTRF plate reader (BMG Labtechnologies). Raw RFU data is normalized to maximum (1.0 nM BACE/DMSO) and minimum (no enzyme/DMSO) RFU values. IC50s are determined by nonlinear regression analysis (sigmoidal dose response, variable slope) of percent inhibition data with minimum and maximum values set to 0 and 100 percent respectively. Similar IC50s are obtained when using raw RFU data. The Ki values are calculated from the IC50 using the Cheng-Prusoff equation.

Chain of soluble human BACE1 catalytic domain (P56817 75-416 limits assumed): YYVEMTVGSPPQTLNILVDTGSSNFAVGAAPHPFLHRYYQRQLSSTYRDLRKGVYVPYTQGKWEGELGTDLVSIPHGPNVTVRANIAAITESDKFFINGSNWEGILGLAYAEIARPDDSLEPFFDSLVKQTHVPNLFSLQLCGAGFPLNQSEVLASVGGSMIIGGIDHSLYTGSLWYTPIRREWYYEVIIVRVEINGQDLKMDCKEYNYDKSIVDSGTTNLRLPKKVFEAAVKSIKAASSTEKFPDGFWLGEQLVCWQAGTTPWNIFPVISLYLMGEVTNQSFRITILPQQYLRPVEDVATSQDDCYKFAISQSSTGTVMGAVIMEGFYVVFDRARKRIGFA

SMILES	Ki [1] [nM]	Ki [2] [nM]
CN=[S@]1(=O)C[C@@](C)(c2cc(Nc3ncnc4cc(Br)cnc34)ccc2F)NC(=N)C1(C)C [Example 7, (1S,5R)-5-(5-((7-bromopyrido[3,2-d]pyrimidin-4-yl)amino)-2-fluorophenyl)-3-imino-2,2,5-trimethyl-1-(methylimino)-1λ^6-thiomorpholine 1-oxide]	10	–
CN=[S@@]1(=O)C[C@@](C)(c2cc(Nc3ncnc4cc(Br)cnc34)ccc2F)NC(=N)C1(C)C [Example 8, (1R,5R)-5-(5-((7-bromopyrido[3,2-d]pyrimidin-4-yl)amino)-2-fluorophenyl)-3-imino-2,2,5-trimethyl-1-(methylimino)-1λ^6-thiomorpholine 1-oxide]	3	1
CN=[S@]1(=O)C[C@@](C)(c2cc(Nc3ncccc3OC)ccc2F)NC(=N)C1(C)C [Example 9, (1S,5R)-5-(2-fluoro-5-((3-methoxypyridin-2-yl)amino)phenyl)-3-imino-2,2,5-trimethyl-1-(methylimino)-1λ^6-thiomorpholine 1-oxide]	24	6

The next lines start with the values.

Ki [1] [nM]	Ki [2] [nM]	SMILES
14	16	CN=[S@@]1(=O)C[C@@](C)(c2cc(Nc3nccc4nc(OC)cnc34)ccc2F)NC(=N)C1(C)C [Example 1, (1R,5R)-5-(2-fluoro-5-((2-methoxypyrido[3,4-b]pyrazin-5-yl)amino)phenyl)-3-imino-2,2,5-trimethyl-1-(methylimino)-1λ^6-thiomorpholine 1-oxide]
98	75	CN=[S@@]1(=O)C[C@@](C)(c2cc(Nc3ccnc4cc(OC)cnc34)ccc2F)NC(=N)C1(C)C [Example 2, (1R,5R)-5-(2-fluoro-5-((7-methoxy-1,5-naphthyridin-4-yl)amino)phenyl)-3-imino-2,2,5-trimethyl-1-(methylimino)-1λ^6-thiomorpholine 1-oxide]
28	25	CN=[S@]1(=O)C[C@@](C)(c2cc(Nc3nccc4cc(OC)cnc34)ccc2F)NC(=N)C1(C)C [Example 4, (1S,5R)-5-(2-fluoro-5-((3-methoxy-1,7-naphthyridin-8-yl)amino)phenyl)-3-imino-2,2,5-trimethyl-1-(methylimino)-1λ^6-thiomorpholine 1-oxide]
1160	–	CN=[S@]1(=O)C[C@@](C)(c2cc(Nc3ccnc4nc(OC)cnc34)ccc2F)NC(=N)C1(C)C [Example 5, (1S,5R)-5-(2-fluoro-5-((3-methoxypyrido[2,3-b]pyrazin-8-yl)amino)phenyl)-3-imino-2,2,5-trimethyl-1-(methylimino)-1λ^6-thiomorpholine 1-oxide]
4	2	CN=[S@]1(=O)C[C@@](C)(c2cc(Nc3nccc4cc(Br)cnc34)ccc2F)NC(=N)C1(C)C [Example 6, (1S,5R)-5-(5-((3-bromo-1,7-naphthyridin-8-yl)amino)-2-fluorophenyl)-3-imino-2,2,5-trimethyl-1-(methylimino)-1λ^6-thiomorpholine 1-oxide]
